According to patent publication US20030225230A1, “Polymers for antifouling coatings and a process for the preparation thereof” (Jotun A/S, priority 1995, published 2003):

Experiments:
[1] = Determination of the hydrolysis rate of monomers in alkaline environment (pH 12); format: physicochemical; conditions: monomer in aqueous solution, starting pH 12, 25 °C

Molecule | Hydrolysis Rate (4.5 h) [1] [%] | Hydrolysis Rate after 24 h [1] [%] | melting point [°C]
2-Methacryloyloxymethylbenzoate | 64.4 | – | –
4-Methacryloyloxymethylbenzoate | – | 54.8 | –
C=C(C)C(=O)Oc1c(Br)cc(Br)cc1Br [2,4,6-Tribromophenylmethacrylate] | – | 13.3 | 140
C=C(C)C(=O)Sc1nc(-c2ccccc2)ns1 [3-Phenyl-5-methacryloylthio-1,2,4-thiadiazole] | – | 12.6 | 110
C=C(C)C(=O)Sc1ccc(Cl)cc1 [4-Chlorothlophenylmethacrylate] | – | 78.0 | –
C=C(C)C(=O)Oc1ccc(NC(C)=O)cc1 [4-Methacryloyloxy acetanilide] | – | 32.9 | –
C=C(C)C(=O)Oc1ccc(OC)cc1 [4-Methoxyphenylmethacrylate] | – | 43.2 | 40
C=C(C)C(=O)Oc1ccc(Br)cc1C=O [5-Bromo-2-methacryloyloxybenzaldehyde] | – | 35.6 | 52
C=C(C)C(=O)OCC(=O)O [Methacryloytoxy acetic acid] | – | 70.1 | –
C=C(C)C(=O)OCC(=O)OC [Methoxycarbonylmethylmethacrylate] | 63.1 | – | 60
C=C(C)C(=O)OCC(=O)OC(C)(C)C [t-Butoxycarbonylmethylmethacrylate] | – | 77.6 | 65
Ethyloxythioglycolic acid methacrylate | – | 80.2 | –
